Measurements taken from patent publication US20070117852A1, “(Hetero)cyclyl carboxanilides for controlling harmful fungi” (priority 2003, published 2007).

System: brown rust of wheat (Puccinia recondita)
Assay: Protective treatment against brown rust of wheat (plants sprayed the day before inoculation)
Format: in vivo, Puccinia recondita on wheat seedlings cultivar "Kanzler"
Conditions: 63 ppm active compound, assessed visually after a further 7 days in greenhouse, untreated 90
Method: The active compounds were prepared as a stock solution comprising 0.25% by weight of active compound in acetone or dimethyl sulfoxide (DMSO). 1% by weight of the emulsifier Uniperol® EL (wetting agent having emulsifying and dispersant action based 10 on ethoxylated alkylphenols) was added to this solution, and the mixture was diluted with water to the desired concentration.
Leaves of potted wheat seedlings of the cultivar “Kanzler” were sprayed to runoff point with an aqueous suspension having the concentration of active compound stated below. The next day, the treated plants were dusted with spores of brown rust of wheat (Puccinia recondita). The plants were then placed in a chamber with high atmospheric humidity (90 to 95%), at 20-22° C., for 24 hours. During this time, the spores germinated and the germinal tubes penetrated into the leaf tissue. The next day, the test plants were returned into the greenhouse and cultivated at temperatures between 20 and 22° C. and at 65 to 70% relative atmospheric humidity for a further 7 days. The extent of the rust development on the leaves was then determined visually.

CC(=NOCc1ccccc1)C(C)Oc1ccccc1NC(=O)c1cccnc1Cl (stereo not shown) [IA-1, 2-Chloro-N-(2-(2-benzyloxyimino-1-methyl-n-propoxy)phenyl)nicotinamide]
Infection at 63 ppm (% of leaf area): 10 % of leaf area
